Measured values as given in patent US20260007681A1, “INDOLE DERIVATIVES AS ESTROGEN RECEPTOR DEGRADERS” (REGENTS OF THE UNIVERSITY OF MICHIGAN, priority 2022, published 2026).
Where two headings read alike, the source gives them in different places.

What was measured:
ER in MCF-7 cells = ER in MCF-7 cells (Homo sapiens (Human), UniProt P03372); assay: In-cell western (ICW) ER degradation assay in MCF-7 cells (Compounds A1-A70); assay type: cell-based; conditions: MCF-7 cells, 16 hrs treatment; for DC50: ER degradation, 0.02 to 300 nM, read-out: MCF7 ICW DC50; for Dmax: MCF7, maximal ER degradation, read-out: MCF7 ICW Dmax (%)
CRBN/DDB1 = CRBN/DDB1 (Homo sapiens (Human), UniProt Q96SW2); assay type: binding; conditions: His tagged CRBN+DDB-DLS7+CXU4, Cy5-labeled Thalidomide probe, one hour incubation; read-out: CRBN HTRF IC50
Procedure: The binding potency was determined using H-TRF assay technology (Perkin Elmer). Compounds were serially diluted in DMSO and 0.2 μL volume was transferred to white 384-well plate.

ERα_LBD(GST) = ERα_LBD(GST) (Homo sapiens (Human), UniProt P03372); assay: IC50 measurements for binding to ERα_LBD (GST), LanthaScreen TR-FRET ERα competitive binding assay; conditions: 4 nM ERα_LBD(GST), 3 nM Fluormone ES2 Green tracer, 60 min; read-out: ERα HTRF IC50
Procedure: • 1. ERα_LBD(GST) protein: 4 nM • 2. Tb Anti-GST: 2 nM • 3. Fluormone ES2 Green tracer: 3 nM • 4. Incubation time: 60 min • 5. DMSO: 1% • 6. Assay buffer: Adding 1M DTT to Nuclear receptor Buffer K for final 5 mM DTT. • 7. ZPE: 1% DMSO • 8. HPE: 1 μM ARV_471 • 9. LanthaScreen® TR-FRET ERα Competitive Binding Assay (ThermoFisher, #A15887)
• 1) Cherry pick 2 μL 10 mM compound stock to column 1 of a 384 intermediate plate • 2) Add 18 μL DMSO to column 1 to dilute compound to 1 mM. • 3) Transfer 10 μL 1 mM compound to column 1 of a LDV plate. • 4) Add 6 μl DMSO to column 2-10 of the LDV plate. • 5) Compounds undergo 3-fold serial dilution (3 μL+6 μL) in DMSO. • 6) Transfer 120 nL compound solution to assay plate. • ZPE: 120 nL 100% DMSO
Prepare complete nuclear receptor buffer K by adding 1 M DTT to nuclear receptor buffer K for a final concentration of 5 mM DTT. Complete nuclear receptor buffer K must be prepared fresh daily. Prepare 2X protein solution using complete nuclear receptor buffer K containing 8 nM ERα_LBD(GST) and 4 nM Tb Anti-GST. Then, prepare 2× Fluormone ES2 Green tracer (6 nM) using complete nuclear receptor buffer K. Add 6 μL 2× Fluormone ES2 green tracer into a compound plate (PerkinElmer 6008289) by dragonfly with one-tips-addition. Subsequently, add 6 μL 2× protein solution into the plate. Briefly and gently mix the 384-well plate on a plate shaker and incubate at room temperature protected from light for 60 min. The plate is sealed with a cover to minimize evaporation. Read the plate at wavelengths of 520 nm and 495 nm. Calculate the TR-FRET ratio by dividing the emission signal at 520 nm by the emission signal at 495 nm. Generate a binding curve by plotting the emission ratio vs. the log [ligand]. To determine the IC50 value, fit the data using XL-fit for a sigmoidal dose-response.

ER in T47D cells = ER in T47D cells (Homo sapiens (Human), UniProt P03372); assay: In-cell western (ICW) ER degradation assay in T47D cells (Compounds A1-A70); assay type: cell-based; conditions: T47D cells, 16 hrs treatment; for DC50: ER degradation, 0.02 to 300 nM; for Dmax: maximal ER degradation, read-out: T47D ICW Dmax (%)
ER in T47D cells, sequence (P03372 whole entry): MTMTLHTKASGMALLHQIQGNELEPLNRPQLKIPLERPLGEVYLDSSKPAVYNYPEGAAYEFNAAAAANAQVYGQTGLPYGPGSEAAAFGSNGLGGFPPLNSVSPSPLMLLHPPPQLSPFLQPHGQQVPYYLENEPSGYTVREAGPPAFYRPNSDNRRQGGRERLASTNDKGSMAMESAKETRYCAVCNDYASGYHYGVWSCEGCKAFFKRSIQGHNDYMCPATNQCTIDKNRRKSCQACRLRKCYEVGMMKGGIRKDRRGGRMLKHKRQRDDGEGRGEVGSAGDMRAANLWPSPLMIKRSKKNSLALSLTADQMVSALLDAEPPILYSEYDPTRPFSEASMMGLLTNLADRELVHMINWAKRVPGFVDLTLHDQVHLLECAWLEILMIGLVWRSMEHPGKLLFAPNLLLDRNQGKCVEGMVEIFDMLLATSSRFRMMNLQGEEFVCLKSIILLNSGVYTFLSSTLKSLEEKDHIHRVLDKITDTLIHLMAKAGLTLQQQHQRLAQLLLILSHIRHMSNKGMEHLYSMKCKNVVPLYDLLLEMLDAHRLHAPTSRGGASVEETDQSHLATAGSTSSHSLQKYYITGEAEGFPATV

ER in MCF-7 cells, sequence (P03372 whole entry): as above
CRBN/DDB1, sequence (Q96SW2 whole entry): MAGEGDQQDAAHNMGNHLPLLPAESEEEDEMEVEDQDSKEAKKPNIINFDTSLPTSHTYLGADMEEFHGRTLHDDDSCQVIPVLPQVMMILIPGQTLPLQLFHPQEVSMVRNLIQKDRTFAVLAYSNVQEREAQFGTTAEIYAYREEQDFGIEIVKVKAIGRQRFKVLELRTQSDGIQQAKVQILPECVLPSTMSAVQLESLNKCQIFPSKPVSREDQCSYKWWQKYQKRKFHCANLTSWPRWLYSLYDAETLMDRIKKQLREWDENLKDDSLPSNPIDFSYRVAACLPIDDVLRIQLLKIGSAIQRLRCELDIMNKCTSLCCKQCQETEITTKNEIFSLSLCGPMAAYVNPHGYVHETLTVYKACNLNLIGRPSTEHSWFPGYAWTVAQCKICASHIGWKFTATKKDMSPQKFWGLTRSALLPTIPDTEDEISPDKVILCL
CRBN/DDB1, sequence (Q16531 whole entry partner): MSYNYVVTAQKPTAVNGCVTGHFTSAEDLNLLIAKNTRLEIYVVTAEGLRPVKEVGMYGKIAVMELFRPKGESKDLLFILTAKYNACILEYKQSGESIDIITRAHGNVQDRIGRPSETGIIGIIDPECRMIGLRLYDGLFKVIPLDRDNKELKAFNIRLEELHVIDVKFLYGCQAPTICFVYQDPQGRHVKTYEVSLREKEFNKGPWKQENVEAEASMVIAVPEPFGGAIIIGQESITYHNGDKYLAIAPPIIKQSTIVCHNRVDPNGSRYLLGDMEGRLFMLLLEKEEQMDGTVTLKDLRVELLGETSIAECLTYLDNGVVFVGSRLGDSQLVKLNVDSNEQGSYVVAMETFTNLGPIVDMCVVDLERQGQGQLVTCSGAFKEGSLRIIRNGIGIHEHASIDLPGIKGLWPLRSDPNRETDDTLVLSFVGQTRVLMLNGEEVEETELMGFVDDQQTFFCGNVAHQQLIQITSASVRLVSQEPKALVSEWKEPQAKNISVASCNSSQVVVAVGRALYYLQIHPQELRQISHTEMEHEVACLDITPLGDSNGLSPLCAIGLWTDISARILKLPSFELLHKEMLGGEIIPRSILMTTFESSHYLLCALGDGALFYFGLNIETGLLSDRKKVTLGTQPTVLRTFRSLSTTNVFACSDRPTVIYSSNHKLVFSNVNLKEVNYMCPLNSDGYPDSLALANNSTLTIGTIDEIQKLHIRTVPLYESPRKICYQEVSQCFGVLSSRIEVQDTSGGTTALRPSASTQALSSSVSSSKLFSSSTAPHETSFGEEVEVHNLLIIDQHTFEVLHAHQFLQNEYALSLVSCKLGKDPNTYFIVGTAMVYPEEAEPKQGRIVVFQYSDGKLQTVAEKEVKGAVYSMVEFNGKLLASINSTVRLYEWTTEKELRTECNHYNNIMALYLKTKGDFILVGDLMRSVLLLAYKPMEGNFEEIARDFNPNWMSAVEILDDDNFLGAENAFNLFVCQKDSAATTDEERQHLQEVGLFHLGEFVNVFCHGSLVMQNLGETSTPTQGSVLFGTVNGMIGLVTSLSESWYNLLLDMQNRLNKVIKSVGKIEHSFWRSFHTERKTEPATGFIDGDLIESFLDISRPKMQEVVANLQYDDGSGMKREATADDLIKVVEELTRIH
ERα_LBD(GST), sequence (P03372 311-547): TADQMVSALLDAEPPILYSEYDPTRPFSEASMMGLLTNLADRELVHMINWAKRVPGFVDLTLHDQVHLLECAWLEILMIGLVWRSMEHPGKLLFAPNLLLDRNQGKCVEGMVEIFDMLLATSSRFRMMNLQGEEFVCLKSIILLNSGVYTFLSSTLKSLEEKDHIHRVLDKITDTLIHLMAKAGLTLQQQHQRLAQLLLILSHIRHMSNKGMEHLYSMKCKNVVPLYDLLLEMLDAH

| SMILES | DC50 (ER in MCF-7 cells) [nM] | Dmax (ER in MCF-7 cells) [%] | IC50 (CRBN/DDB1) [nM] | IC50 (ERα_LBD(GST)) [nM] | DC50 (ER in T47D cells) [nM] | Dmax (ER in T47D cells) [%] | Dmax (ER in T47D cells; T47D) [%] | MCF7 ICW Dmax (%) (ER in MCF-7 cells; maximal ER degradation) |
| --- | --- | --- | --- | --- | --- | --- | --- | --- |
| C[C@@H]1Cc2c([nH]c3ccccc23)[C@@H](c2cnc(N3CCC(CN4CCC5(CC4)COc4cc6c(cc45)CN(C4CCC(=O)NC4=O)C6=O)CC3)nc2)N1CC(F)(F)CO (stereo partly drawn) [Compound A36, 3-(1′-((1-(5-((1R,3R)-2-(2,2-difluoro-3-hydroxypropyl)-3-methyl-2,3,4,9-tetrahydro-1H-pyrido[3,4-b]indol-1-yl)pyrimidin-2-yl)piperidin-4-yl)methyl)-7-oxo-5,7-dihydro-2H,6H-spiro[furo[2,3-f]isoindole-3,4′-piperidin]-6-yl) piperidine-2,6-dione] | 1 to 10 | 25 to 50 | 50 to 500 | < 10 | < 1 | 50 to 75 |  |  |
| COc1cc(N2CCC(CN3CCN4c5ccc6c(c5OC[C@H]4C3)CN([C@@H]3CCC(=O)NC3=O)C6=O)CC2)ccc1[C@@H]1c2[nH]c3ccccc3c2C[C@@H](C)N1CC(F)F [Compound A37, (R)-3-((R)-7-((1-(4-((1R,3R)-2-(2,2-difluoroethyl)-3-methyl-2,3,4,9-tetrahydro-1H-pyrido[3,4-b]indol-1-yl)-3-methoxyphenyl)piperidin-4-yl)methyl)-1-oxo-1,3,5,5a,6,7,8,9-octahydro-2H-pyrazino[1′,2′:4,5][1,4]oxazino[2,3-e]isoindol-2-yl)piperidine-2,6-dione] | < 1 | 50 to 75 | > 5000 | < 10 | < 1 |  | > 75 |  |
| COc1cc(N2CCC(CN3CCN4c5ccc6c(c5OC[C@@H]4C3)CN([C@H]3CCC(=O)NC3=O)C6=O)CC2)ccc1[C@@H]1c2[nH]c3ccccc3c2C[C@@H](C)N1CC(F)F [Compound A45, (S)-3-((S)-7-((1-(4-((1R,3R)-2-(2,2-difluoroethyl)-3-methyl-2,3,4,9-tetrahydro-1H-pyrido[3,4-b]indol-1-yl)-3-methoxyphenyl)piperidin-4-yl)methyl)-1-oxo-1,3,5,5a,6,7,8,9-octahydro-2H-pyrazino[1′,2′:4,5][1,4]oxazino[2,3-e]isoindol-2-yl)piperidine-2,6-dione] | < 1 |  | > 5000 | < 10 | < 1 |  | > 75 | A (“A”: >=75%) |
| C[C@@H]1Cc2c([nH]c3ccccc23)[C@@H](c2cnc(N3CCC4(CC3)C[C@@H](CN3CCN5c6ccc(C(=O)N[C@H]7CCC(=O)NC7=O)nc6OC[C@H]5C3)CO4)nc2)N1CC(F)F [Compound A63, (4aR)-3-((8-(5-((1R,3R)-2-(2,2-difluoroethyl)-3-methyl-2,3,4,9-tetrahydro-1H-pyrido[3,4-b]indol-1-yl)pyrimidin-2-yl)-1-oxa-8-azaspiro[4.5]decan-3-yl)methyl)-N—((S)-2,6-dioxopiperidin-3-yl)-1,2,3,4,4a,5-hexahydropyrazino[1,2-d]pyrido[2,3-b][1,4]oxazine-8-carboxamide] | 1 to 10 | 50 to 75 | 500 to 5000 | ≥ 10 | 1 to 10 |  | 50 to 75 |  |
| C[C@H]1Cc2c([nH]c3ccccc23)[C@H](c2cnc(N3CCC4(CC3)C[C@H](CN3CCN5c6cc7c(cc6OC[C@@H]5C3)C(=O)N([C@@H]3CCC(=O)NC3=O)C7)CO4)nc2)N1CC(F)F [Compound A69, (R)-3-((S)-3-(((R)-8-(5-((1S,3S)-2-(2,2-difluoroethyl)-3-methyl-2,3,4,9-tetrahydro-1H-pyrido[3,4-b]indol-1-yl)pyrimidin-2-yl)-1-oxa-8-azaspiro[4.5]decan-3-yl)methyl)-8-oxo-1,2,3,4,4a,5,8,10-octahydro-9H-pyrazino[1′,2′:4,5][1,4]oxazino[2,3-f]isoindol-9-yl)piperidine-2,6-dione] | < 1 | > 75 | 50 to 500 | ≥ 10 | < 1 |  | > 75 |  |
